# Source: patent publication US12582617B2, “Methods for treating cancer” (RADIUS PHARMACEUTICALS, INC., priority 2015, dated 2026)
# Counter-ions that a name gives are not always drawn.
# Test: Phase 1 dose escalation study: safety, treatment related AEs
# Assay type: in vivo
# Method: The subjects were 40-75 years old with BMI of 18.0-30 kg/m^2. Subjects having evidence of clinically relevant pathology, increased risk of stroke or of history venous thromboembolic events, or use of concomitant medication less than 14 days prior to admission to clinical research center (paracetamol allowed up to 3 days prior) were excluded.
# The subjects were treated with placebo or at least one dose p.o., q.d. after a light breakfast for 7 days at dose levels of 200 mg, 500 mg, 750 mg and 1000 mg, respectively.
smiles,measurement,setting,value
"CCNCCc1ccc(CN(CC)c2cc(OC)ccc2[C@@H]2CCc3cc(O)ccc3C2)cc1 [RAD1901, (6R)-6-(2-(N-(4-(2-(ethylamino)ethyl)benzyl)-N-ethylamino)-4-methoxyphenyl)-5,6,7,8-tetrahydronaphthalen-2-ol dihydrochloride]",Abdominal discomfort (treatment related AE),"200 mg, Gr1",3 n(%)
same,Abdominal distension (treatment related AE),"200 mg, Gr1",1 n(%)
same,Abdominal pain (treatment related AE),"200 mg, Gr1",2 n(%)
same,Diarrhoea (treatment related AE),"200 mg, Gr1",0 n(%)
same,Dizziness (treatment related AE),"200 mg, Gr1",1 n(%)
same,Dyspepsia (treatment related AE),"200 mg, Gr1",3 n(%)
same,Dysphagia (treatment related AE),"200 mg, Gr1",0 n(%)
same,Flatulance (treatment related AE),"200 mg, Gr1",2 n(%)
same,Headache (treatment related AE),"200 mg, Gr1",3 n(%)
same,Hiccups (treatment related AE),"200 mg, Gr1",1 n(%)
same,Hot flush (treatment related AE),"200 mg, Gr1",2 n(%)
same,Myalgia (treatment related AE),"200 mg, Gr1",2 n(%)
same,Nausea (treatment related AE),"200 mg, Gr1",5 n(%)
same,Odynophagia (treatment related AE),"200 mg, Gr1",2 n(%)
same,Oesophageal pain (treatment related AE),"200 mg, Gr1",0 n(%)
same,Salivary hypersecretion (treatment related AE),"200 mg, Gr1",2 n(%)
same,Sensation of a foreign body (treatment related AE),"200 mg, Gr1",2 n(%)
same,Vomiting (treatment related AE),"200 mg, Gr1",2 n(%)
same,Abdominal discomfort (treatment related AE),"200 mg, Gr2",0 n(%)
same,Abdominal distension (treatment related AE),"200 mg, Gr2",1 n(%)
same,Abdominal pain (treatment related AE),"200 mg, Gr2",2 n(%)
same,Diarrhoea (treatment related AE),"200 mg, Gr2",0 n(%)
same,Dizziness (treatment related AE),"200 mg, Gr2",0 n(%)
same,Dyspepsia (treatment related AE),"200 mg, Gr2",0 n(%)
same,Dysphagia (treatment related AE),"200 mg, Gr2",0 n(%)
same,Flatulance (treatment related AE),"200 mg, Gr2",0 n(%)
same,Headache (treatment related AE),"200 mg, Gr2",0 n(%)
same,Hiccups (treatment related AE),"200 mg, Gr2",0 n(%)
same,Hot flush (treatment related AE),"200 mg, Gr2",0 n(%)
same,Myalgia (treatment related AE),"200 mg, Gr2",1 n(%)
same,Nausea (treatment related AE),"200 mg, Gr2",0 n(%)
same,Odynophagia (treatment related AE),"200 mg, Gr2",0 n(%)
same,Oesophageal pain (treatment related AE),"200 mg, Gr2",2 n(%)
same,Salivary hypersecretion (treatment related AE),"200 mg, Gr2",0 n(%)
same,Sensation of a foreign body (treatment related AE),"200 mg, Gr2",0 n(%)
same,Vomiting (treatment related AE),"200 mg, Gr2",0 n(%)
same,Abdominal discomfort (treatment related AE),"200 mg, Gr3",0 n(%)
same,Abdominal distension (treatment related AE),"200 mg, Gr3",0 n(%)
same,Abdominal pain (treatment related AE),"200 mg, Gr3",0 n(%)
same,Diarrhoea (treatment related AE),"200 mg, Gr3",0 n(%)
same,Dizziness (treatment related AE),"200 mg, Gr3",0 n(%)
same,Dyspepsia (treatment related AE),"200 mg, Gr3",0 n(%)
same,Dysphagia (treatment related AE),"200 mg, Gr3",0 n(%)
same,Flatulance (treatment related AE),"200 mg, Gr3",0 n(%)
same,Headache (treatment related AE),"200 mg, Gr3",0 n(%)
same,Hiccups (treatment related AE),"200 mg, Gr3",0 n(%)
same,Hot flush (treatment related AE),"200 mg, Gr3",0 n(%)
same,Myalgia (treatment related AE),"200 mg, Gr3",0 n(%)
same,Nausea (treatment related AE),"200 mg, Gr3",0 n(%)
same,Odynophagia (treatment related AE),"200 mg, Gr3",0 n(%)
same,Oesophageal pain (treatment related AE),"200 mg, Gr3",0 n(%)
same,Salivary hypersecretion (treatment related AE),"200 mg, Gr3",0 n(%)
same,Sensation of a foreign body (treatment related AE),"200 mg, Gr3",0 n(%)
same,Vomiting (treatment related AE),"200 mg, Gr3",0 n(%)
same,Abdominal discomfort (treatment related AE),"500 mg, Gr1",0 n(%)
same,Abdominal distension (treatment related AE),"500 mg, Gr1",1 (7) n(%)
same,Abdominal pain (treatment related AE),"500 mg, Gr1",3 (21) n(%)
same,Diarrhoea (treatment related AE),"500 mg, Gr1",3 (21) n(%)
same,Dizziness (treatment related AE),"500 mg, Gr1",2 (14) n(%)
same,Dyspepsia (treatment related AE),"500 mg, Gr1",5 (36) n(%)
same,Dysphagia (treatment related AE),"500 mg, Gr1",1 (7) n(%)
same,Flatulance (treatment related AE),"500 mg, Gr1",2 (14) n(%)
same,Headache (treatment related AE),"500 mg, Gr1",1 (7) n(%)
same,Hiccups (treatment related AE),"500 mg, Gr1",4 (29) n(%)
same,Hot flush (treatment related AE),"500 mg, Gr1",6 (43) n(%)
same,Myalgia (treatment related AE),"500 mg, Gr1",0 n(%)
same,Nausea (treatment related AE),"500 mg, Gr1",3 (21) n(%)
same,Odynophagia (treatment related AE),"500 mg, Gr1",1 (7) n(%)
same,Oesophageal pain (treatment related AE),"500 mg, Gr1",1 (7) n(%)
same,Salivary hypersecretion (treatment related AE),"500 mg, Gr1",2 (14) n(%)
same,Sensation of a foreign body (treatment related AE),"500 mg, Gr1",1 (7) n(%)
same,Vomiting (treatment related AE),"500 mg, Gr1",1 (7) n(%)
same,Abdominal discomfort (treatment related AE),"500 mg, Gr2",0 n(%)
same,Abdominal distension (treatment related AE),"500 mg, Gr2",0 n(%)
same,Abdominal pain (treatment related AE),"500 mg, Gr2",0 n(%)
same,Diarrhoea (treatment related AE),"500 mg, Gr2",0 n(%)
same,Dizziness (treatment related AE),"500 mg, Gr2",0 n(%)
same,Dyspepsia (treatment related AE),"500 mg, Gr2",2 n(%)
same,Dysphagia (treatment related AE),"500 mg, Gr2",2 n(%)
same,Flatulance (treatment related AE),"500 mg, Gr2",0 n(%)
same,Headache (treatment related AE),"500 mg, Gr2",1 n(%)
same,Hiccups (treatment related AE),"500 mg, Gr2",0 n(%)
same,Hot flush (treatment related AE),"500 mg, Gr2",0 n(%)
same,Myalgia (treatment related AE),"500 mg, Gr2",1 n(%)
same,Nausea (treatment related AE),"500 mg, Gr2",2 n(%)
same,Odynophagia (treatment related AE),"500 mg, Gr2",1 n(%)
same,Oesophageal pain (treatment related AE),"500 mg, Gr2",3 n(%)
same,Salivary hypersecretion (treatment related AE),"500 mg, Gr2",0 n(%)
same,Sensation of a foreign body (treatment related AE),"500 mg, Gr2",0 n(%)
same,Vomiting (treatment related AE),"500 mg, Gr2",5 n(%)
same,Abdominal discomfort (treatment related AE),"500 mg, Gr3",0 n(%)
same,Abdominal distension (treatment related AE),"500 mg, Gr3",0 n(%)
same,Abdominal pain (treatment related AE),"500 mg, Gr3",0 n(%)
same,Diarrhoea (treatment related AE),"500 mg, Gr3",0 n(%)
same,Dizziness (treatment related AE),"500 mg, Gr3",0 n(%)
same,Dyspepsia (treatment related AE),"500 mg, Gr3",0 n(%)
same,Dysphagia (treatment related AE),"500 mg, Gr3",0 n(%)
same,Flatulance (treatment related AE),"500 mg, Gr3",0 n(%)
same,Headache (treatment related AE),"500 mg, Gr3",0 n(%)
same,Hiccups (treatment related AE),"500 mg, Gr3",0 n(%)
same,Hot flush (treatment related AE),"500 mg, Gr3",0 n(%)
same,Myalgia (treatment related AE),"500 mg, Gr3",0 n(%)
same,Nausea (treatment related AE),"500 mg, Gr3",0 n(%)
same,Odynophagia (treatment related AE),"500 mg, Gr3",0 n(%)
same,Oesophageal pain (treatment related AE),"500 mg, Gr3",0 n(%)
same,Salivary hypersecretion (treatment related AE),"500 mg, Gr3",0 n(%)
same,Sensation of a foreign body (treatment related AE),"500 mg, Gr3",0 n(%)
same,Vomiting (treatment related AE),"500 mg, Gr3",1 n(%)
same,Abdominal discomfort (treatment related AE),"750 mg, Gr1",1 (13) n(%)
same,Abdominal distension (treatment related AE),"750 mg, Gr1",1 (13) n(%)
same,Abdominal pain (treatment related AE),"750 mg, Gr1",1 (13) n(%)
same,Diarrhoea (treatment related AE),"750 mg, Gr1",0 n(%)
same,Dizziness (treatment related AE),"750 mg, Gr1",1 (13) n(%)
same,Dyspepsia (treatment related AE),"750 mg, Gr1",4 (50) n(%)
same,Dysphagia (treatment related AE),"750 mg, Gr1",3 (38) n(%)
same,Flatulance (treatment related AE),"750 mg, Gr1",1 (13) n(%)
same,Headache (treatment related AE),"750 mg, Gr1",3 (38) n(%)
same,Hiccups (treatment related AE),"750 mg, Gr1",2 (25) n(%)
same,Hot flush (treatment related AE),"750 mg, Gr1",2 (25) n(%)
same,Myalgia (treatment related AE),"750 mg, Gr1",1 (13) n(%)
same,Nausea (treatment related AE),"750 mg, Gr1",2 (25) n(%)
same,Odynophagia (treatment related AE),"750 mg, Gr1",0 n(%)
same,Oesophageal pain (treatment related AE),"750 mg, Gr1",1 (13) n(%)
same,Salivary hypersecretion (treatment related AE),"750 mg, Gr1",2 (25) n(%)
same,Sensation of a foreign body (treatment related AE),"750 mg, Gr1",0 n(%)
same,Vomiting (treatment related AE),"750 mg, Gr1",0 n(%)
same,Abdominal discomfort (treatment related AE),"750 mg, Gr2",1 n(%)
same,Abdominal distension (treatment related AE),"750 mg, Gr2",0 n(%)
same,Abdominal pain (treatment related AE),"750 mg, Gr2",0 n(%)
same,Diarrhoea (treatment related AE),"750 mg, Gr2",0 n(%)
same,Dizziness (treatment related AE),"750 mg, Gr2",0 n(%)
same,Dyspepsia (treatment related AE),"750 mg, Gr2",0 n(%)
same,Dysphagia (treatment related AE),"750 mg, Gr2",1 n(%)
same,Flatulance (treatment related AE),"750 mg, Gr2",0 n(%)
same,Headache (treatment related AE),"750 mg, Gr2",0 n(%)
same,Hiccups (treatment related AE),"750 mg, Gr2",0 n(%)
same,Hot flush (treatment related AE),"750 mg, Gr2",0 n(%)
same,Myalgia (treatment related AE),"750 mg, Gr2",0 n(%)
same,Nausea (treatment related AE),"750 mg, Gr2",1 n(%)
same,Odynophagia (treatment related AE),"750 mg, Gr2",0 n(%)
same,Oesophageal pain (treatment related AE),"750 mg, Gr2",0 n(%)
same,Salivary hypersecretion (treatment related AE),"750 mg, Gr2",0 n(%)
same,Sensation of a foreign body (treatment related AE),"750 mg, Gr2",0 n(%)
same,Vomiting (treatment related AE),"750 mg, Gr2",2 n(%)
same,Abdominal discomfort (treatment related AE),"750 mg, Gr3",0 n(%)
